{"source": "patent US6809091B1", "about": "“Substances capable of inducing apoptosis” (Takara Bio Inc., priority 1998, dated 2004)", "key": {"HL-60 cells [1]": {"tested_on": "HL-60 cells", "test": "measurement of apoptosis cells using FACScan", "type": "cell-based, human", "conditions": "HL-60, 24 hours and 48 hours", "protocol": "(2) HL-60 cells which were incubated on an RPMI 1640 medium containing 10% of fetal bovine serum processed at 56° C. for 30 minutes were suspended in an RPMI 1640 medium to make 2.5×10^5 cells/5 ml. […]"}, "HL-60 cells [2]": {"tested_on": "HL-60 cells", "test": "observation of apoptosis under an optical microscope", "type": "cell-based, human", "conditions": "HL-60, 24 hours", "protocol": "(1) HL-60 cells (ATCC CCL-240) incubated at 37° C. in an RPMI 1640 medium (manufactured by BioWhittaker) containing 10% of fetal bovine serum (manufactured by JRH) treated at 56° C. for 30 minutes were suspended in an RPMI 1640 medium to make the concentration 2.5×10^5 cells/5 ml.\nTo 5 ml of this suspension were added 10 μl of 12.5 mM, 25 mM, 50 mM or 100 mM of a 70% ethanolic solution of 4,5-dihydroxy-2-pentenal prepared in Example 6-(1), 0.05 mM, 0.5 mM, 5 mM or 50 mM of a 70% ethanolic solution of 4-hydroxy-2-cyclopenten-1-[…] prepared in Example 6-(1), 5 mM, 10 mM or 20 mM of a 70% ethanolic solution of 4-(9-adeninyl)-2-cyclopenten-1-one prepared in Example 4-(4), 2.5 mM, 5 mM, 15 mM or 25 mM of a 70% ethanolic solution of 4-(9-guaninyl)-2-cyclopenten-1-one prepared in Example 4-(5), 75 mM, 150 mM or 300 mM of a 70% ethanolic solution of 1,5-epoxy-1-hydroxy-3-penten-2-one prepared in Example 5-(2) or 5 mM, 25 mM or 50 mM of a 70% ethanolic solution of 2-(trans-3,4-dihydroxy-1-butenyl)-4-(trans-2-formylvinyl)-1,3-dioxolane prepared in Example 6-(2) followed by incubating at 37° C. in the presence of 5% carbon dioxide gas for 24 hours.\nIncidentally, such phenomena were not noted in the incubated cells to which […] of 70% ethanolic solution were added used as a control."}, "HL-60 cells [3]": {"tested_on": "HL-60 cells", "test": "Trypan Blue staining, survival rate", "type": "cell-based", "conditions": "Homo sapiens, HL-60, 24 hours, concentration where survival rate becomes 50%, read-out: Survival Rate50", "protocol": "(3) The cells which were incubated for 24 hours by the same manner as in Example 9-(2) were stained with 0.4% Trypan Blue and observed under an optical microscope, numbers of viable cells which were not stained and of dead cells which were stained in blue were measured, concentration (survival rate50) of each of the samples where survival rate becomes 50% was determined and the result is given in Table 1."}, "[4]": {"tested_on": "human promyelocytic leukemia HL-60", "test": "MTT method: cell growth suppressing / apoptosis-inducing activity", "type": "cell-based", "conditions": "for apoptosis-inducing activity of the non-heated solution: HL-60, 48 hours, MTT method; for apoptosis-inducing activity / cancer cell growth suppressing activity: HL-60, MTT method of Example 1, 48 hours", "protocol": "Heated and non-heated substances of each of them were sterilized by a membrane filter of 0.22 μm to prepare samples for the apoptosis-inducing activity. Those samples were diluted with aseptic distilled water to an extent of 2-, 4-, 8-, 16- and 32-fold, their activity for suppressing the cell growth to the human promyelocytic leukemia HL-60 was measured as follows and their intensity or the apoptosis-inducing activity was compared.\nThus, 10 μl of each of the diluted solutions or 10 μl of aseptic distilled water were placed in a well of a 96-well microtiter plate. Then 90 μl of an RPMI 1640 medium (manufactured by Nissui) containing 10% of fetal bovine serum (manufactured by Gibco) which contained 5000 HL-60 cells (ATCC CCL240) were added thereto and an incubation was carried out at 37° C. for 48 hours in the presence of 5% carbon dioxide gas. After observing the shape of the cells under an optical microscope, 10 μl of a phosphate-buffered aqueous saline solution containing 5 mg/ml of 3-(4,5-dimethylthiazol-2-yl)-2,5-diphenyltetrazolium bromide (MTT; manufactured by Sigma), an incubation was continued for four hours more and state of growth of cells and formation of formazan produced in the cells were observed under a microscope. Further, 100 μl of 2-propanol containing 0.04N HCl were added thereto followed by well stirring and the absorbance at 590 nm was measured and used as a degree of growth of cells (an MTT method).\nThe solvent of the fraction was appropriately evaporated to substitute with a 50% aqueous solution of ethanol and the activity for suppressing the growth of cancer cells was measured by an MTT method mentioned in Example 1 except that the sample was diluted to a two-fold series using a 50% aqueous solution of ethanol and 2 μl of each of the diluted solutions or 2 μl of a 50% aqueous solution of ethanol were placed in a well of a flat-bottom 96-well microplate. Time for incubation was 16 hours."}, "HL-60 cells [5]": {"tested_on": "HL-60 cells", "test": "analysis of fragmentation of DNA", "type": "cell-based, human", "protocol": "(2) HL-60 cells which were incubated on an RPMI 1640 medium containing 10% of fetal bovine serum processed at 56° C. for 30 minutes were suspended in an RPMI 1640 medium to make 2.5×10^5 cells/5 ml.\nTo 5 ml the suspension were added 10 μl of 12.5 mM, 25 mM, 50 mM or 100 mM of a 70% ethanolic solution of 4,5-dihydroxy-2-pentenal, 0.05 mM, 0.5 mM, 5 mM or 50 mM of a 70% ethanolic solution of 4-hydroxy-2-cyclopenten-1-one, 5 mM, 10 mM or 20 mM of a 70% ethanolic solution of 4-(9-adeninyl)-2-cyclopenten-1-one prepared in Example 4-(4), 2.5 mM, 5 mM, 15 mM or 25 mM of a 70% ethanolic solution of 4-(9-guaninyl)-2-cyclopenten-1-one prepared in Example 4-(5) 75 mM, 150 mM or 300 mM of a 70% ethanolic solution of 1,5-epoxy-1-hydroxy-3-penten-2-one prepared in Example 5-(2) or 5 mM, 25 mM or 50 mM of a 70% ethanolic solution of 2-(trans-3,4-dihydroxy-1-butenyl)-4-(trans-2-formylvinyl)-1,3-dioxolane prepared in Example 6-(2) followed by incubating at 37° C. in the presence of 5% of carbon dioxide gas for 24 hours and 48 hours and the resulting cells were subjected to a measurement of apoptosis cells using FACScan by a method mentioned in pages 129-130 of “Experimental Protocol Series—Apoptosis Experiment Protocol” which was an extra issue of “Saibo Kogaku (Cell Technology)” (published by Shujunsha in 1994) and also to a measurement of analysis of fragmentation of DNA by a method mentioned in page 61-63 of “Biomanual UP Series—New Experimental Methods for Apoptosis” (published by Yodosha in 1995)."}}}
{"smiles": "O=C1C=CCOC1O", "note": "(centres unmarked) [1,5-epoxy-1-hydroxy-3-penten-2-one]", "values": [{"measurement": "final concentration at which apoptosis cells were confirmed", "setting": "HL-60 cells [1]", "result": "≥ 600", "unit": "µM"}, {"measurement": "final concentration at which aggregation of nuclei, reduction in size of the cells and formation of apoptic body were confirmed", "setting": "HL-60 cells [2]", "result": "≥ 625", "unit": "µM"}, {"measurement": "IC50", "setting": "HL-60 cells [3]", "result": 438, "unit": "µM"}]}
{"smiles": "O=C1C=CC(O)C1O", "note": "(centres unmarked) [4,5-dihydroxy-2-cyclopenten-1-one]", "values": [{"measurement": "cancer cell growth suppressing activity and apoptic body formation", "setting": "[4]; HL-60, MTT method of Example 4-(2), sample in 50% ethanol, 16 hours", "result": "confirmed"}]}
{"smiles": "O=C[C@H](O)[C@@H](O)[C@@H](O)CO", "note": "[L(+)-arabinose]", "values": [{"measurement": "apoptosis-inducing activity of the non-heated solution", "setting": "[4]", "result": "no apoptosis-inducing activity"}]}
{"smiles": "Nc1ncnc2c1ncn2C1C=CC(=O)C1", "note": "(centres unmarked) [4-(9-adeninyl)-2-cyclopenten-1-one]", "values": [{"measurement": "fragmentation of DNA", "setting": "HL-60 cells [5]; HL-60, 10 μM final concentration", "result": "confirmed"}, {"measurement": "fragmentation of DNA", "setting": "HL-60 cells [5]; HL-60, 30 μM final concentration", "result": "confirmed"}, {"measurement": "IC50", "setting": "HL-60 cells [3]", "result": 22.4, "unit": "µM"}]}
{"smiles": "O=CC[C@H](O)[C@H](O)CO", "note": "[2-deoxy-D-ribose]", "values": [{"measurement": "apoptosis-inducing activity of the non-heated solution", "setting": "[4]", "result": "no apoptosis-inducing activity"}]}
{"smiles": "O=C[C@H](O)[C@@H](O)[C@H](O)CO", "note": "[D(+)-xylose]", "values": [{"measurement": "apoptosis-inducing activity of the non-heated solution", "setting": "[4]", "result": "no apoptosis-inducing activity"}]}
{"smiles": "NC(CCC(=O)NC(CSC1CC(=O)CC1O)C(=O)NCC(=O)O)C(=O)O", "note": "(single isomer, unassigned) [peak 1]", "values": [{"measurement": "apoptosis-inducing activity / cancer cell growth suppressing activity", "setting": "[4]", "result": "noted"}]}
{"smiles": "O=C[C@H](O)[C@H](O)[C@H](O)CO", "note": "[non-heated aqueous solution of D-ribose, D-ribose]", "values": [{"measurement": "apoptosis-inducing activity of the non-heated solution", "setting": "[4]", "result": "no apoptosis-inducing activity"}]}
{"smiles": "O=C[C@@H](O)[C@H](O)[C@H](O)CO", "note": "[D-(−)-arabinose]", "values": [{"measurement": "apoptosis-inducing activity of the non-heated solution", "setting": "[4]", "result": "no apoptosis-inducing activity"}]}
{"smiles": "NC(CCC(=O)NC(CSC1CC(=O)CC1O)C(=O)NCC(=O)O)C(=O)O", "note": "(single isomer, unassigned) [peak 3]", "values": [{"measurement": "apoptosis-inducing activity / cancer cell growth suppressing activity", "setting": "[4]", "result": "noted"}]}
